Measured values from patent publication US4399817A, “Boron containing polyphosphonates for the treatment of calcific tumors” (The Procter & Gamble Company, priority 1981, dated 1983).

Experiments:
[1] = Oral tablets followed by neutron irradiation in patient with calcified tumor (Example IX); assay type: in vivo, patient (human)
Experimental: Tablets are prepared by conventional methods, formulated as follows: […]

[2] = Water solubility (remark in synthesis); assay type: physicochemical
Experimental: 1,2-Diphosphono-o-carborane was prepared as follows: To a solution of 5 g o-carborane in dry THF was added dropwise 46.7 ml of a 1.5 N solution of n-butyllithium at 0° C. To the mixture was then quickly added 11 g diethyl chlorophosphite. The solution was refluxed for several hours. The THF was evaporated. The resulting residue contained unreacted o-carborane and 1,2-di(diethyl phosphite) o-carborane. The latter was hydrolized to the corresponding acid in 500 ml 6 N HCl by refluxing during 24 hours, after which the remaining HCl solution was evaporated. […] The water was then evaporated, and the residue mixed with 50 ml 10% hydrogen peroxide. The mixture was carefully refluxed until the reaction was completed. The structure of 1,2-diphosphono-o-carborane was verified by ^31 P and ^11 B NMR.

[3] = Oral capsules followed by neutron irradiation in adult with a bone tumor (Example VIII); assay type: in vivo, adult (human); conditions: oral capsules (350 mg MECB or replacement) twice daily, ten days; 37 eV neutron beam about 24 hrs after last capsule
Experimental: Capsules are prepared by conventional methods, comprised as follows:
To a 76 kg adult with a bone tumor are administered orally twice daily the above capsules for a period of ten days. About 24 hrs after the last capsule is administered, the tumor site is irradiated with a 37 eV neutron beam of 2.4×10^8 neutrons cm^-2 s^-1.

[4] = Animal skeletal uptake test (99mTc scan); assay type: in vivo, Rabbits; conditions: 99mTc-labelled solution, 1.0 ml injected; scanned at 3 hrs and 21 hrs
Experimental: In this test the skeletal uptake of a polyphosphonate compound is established as follows:
A reducing solution is prepared by mixing 5.0 ml of a 0.34 N NTA solution, 1.0 ml of a 0.84 M SnCl2 solution and 3.0 ml H2 O. The pH of the solution is adjusted to 5.6 with 1.0 N NaOH. 100 ul of the reducing solution is added to 1.0 ml of a ^99m TcO4^- solution, containing 19.6 mCi. The reduction of TcO4^- is checked by TLC. 0.9 ml of a 35 mg/ml solution of a boron polyphosphonate is added to the reduced technetiate solution. Rabbits are injected with 1.0 ml each of this solution. The animals are scanned for skeletal uptake at 3 hrs and 21 hrs after injection.

[5] = Crystal Growth Inhibition Test; conditions: for Lag Time: pH 7.4
Experimental: The test is conducted as follows:
50 ml of a 0.01 M KH2 PO4 stock solution is diluted with 1000 ml N2 purged distilled water. 1 ml of an aqueous solution of the polyphosphonate to be tested (at a concentration to provide the desired ultimate concentration in the reaction mixture) is added to the diluted KH2 PO4 solution and the solution is adjusted to pH 7.4 with potassium hydroxide. To this solution is added 50 ml of a 0.0175 N CaCl2 solution preadjusted to pH 7.4. The KOH consumption is recorded as a function of time. The rate of KOH consumption is directly related to the rate of calcium phosphate formation. In the absence of polyphosphonate the formation of calcium phosphate starts at t=o, i.e. when the solutions of KH2 PO4 and CalCl2 are mixed. Low levels of polyphosphonates are capable of inhibiting the formation of calcium phosphate for 20 minutes or longer. This effect depends on the propensity of the polyphosphonates to adsorb on calcium phosphate crystal nuclei.
1-Methyl, 2-(2,2-ethane diphosphonic acid) o-carborane (MECB) was subjected to the Crystal Growth Inhibition Test.

1,2-di(2-chloro-2,2-ethane diphosphonic acid)o-carborane [DC1EDP]
deposition of 10B in the calcified tumor tissue ([1]; oral tablets (25 mg) four times daily): significant amounts
levels of localized alpha particles emitted ([1]; oral tablets four times daily, irradiation by 37 eV neutrons): effective levels

1,2-dicarbaclosododeca borane (12) [o-carborane]
solubility in water [2]: not soluble in water

1-Methyl, 2-(2,2-ethane diphosphonic acid) o-carborane [MECB]
level of alpha and Li particles generated in the tumor tissue [3]: effective level
skeletal affinity [4]: high skeletal affinity
Lag Time ([5]; Concentration 1 × 10^-6 Mole): 25 min
Lag Time ([5]; Concentration 2 × 10^-6 Mole): 37 min
capability to retard the formation of calcium phosphate ([5]; compared with Cl2 MDP, Table I): the same as that of Cl2 MDP

O=P(O)(O)C(Cl)(Cl)P(=O)(O)O [Cl2 MDP, dichloromethylene diphosphonate, reference compound]
Lag Time ([5]; Concentration 1 × 10^-6 Mole): 18 min
Lag Time ([5]; Concentration 2 × 10^-6 Mole): 41 min

CC(O)(P(=O)(O)O)P(=O)(O)O [EHDP, Ethane hydroxy diphosphonate, reference compound]
Lag Time ([5]; Concentration 1 × 10^-6 Mole): 82 min
